{"source": "patent US20120003661A1", "about": "“METHODS AND DEVICES FOR THE SELECTIVE DETECTION OF MICROORGANISMS” (C3 JIAN, INC., priority 2010, published 2012)", "note": "“Also recorded” adds a separate entry of the source. Ends that are not written are not given here.", "data": [{"system": "S. pneumoniae", "assay": "MIC of antimicrobial peptides (Table 4)", "format": "cell-based, Streptococcus pneumoniae", "settings": "not given", "values": [{"substance": "ASKQASKQASKQASKQASKQASRSLKNHLL [PF-523]", "Organism MIC": "S. pneumoniae, 50 μM"}, {"substance": "CGKLLEQKNFFLKTR [PF-521]", "Organism MIC": "S. pneumoniae, 50 μM"}, {"substance": "FQKPFTGEEVEDFQDDDEIPTII [PF-437]", "Organism MIC": "S. pneumoniae, 50 μM"}, {"substance": "LGLTAGVAYAAQPTNQPTNQPTNQPTNQPTNQPTNQPRW-NH2 [PF-520]", "Organism MIC": "S. pneumoniae, 50 μM"}]}, {"system": "B. subtilis", "assay": "MIC of antimicrobial peptides (Table 4)", "format": "cell-based, Bacillus subtilis", "settings": "B. subtilis", "values": [{"substance": "GIVLIGLKLIPLLANVLR [PF-322]", "Organism MIC": "B. subtilis, 50 μM"}, {"substance": "LVLRICTDLFTFIKWTIKQRKS [PF-497]", "Organism MIC": "B. subtilis, 50 μM"}, {"substance": "VYSFLYVLVIVRKLLSMKKRIERL [PF-499]", "Organism MIC": "B. subtilis, 50 μM"}]}, {"system": "S. mutans", "assay": "MIC of antimicrobial peptides (Table 4)", "format": "cell-based, Streptococcus mutans", "settings": "not given", "values": [{"substance": "FIRKFLKKWLL [K-9]", "Organism MIC": "S. mutans, 4 μM"}, {"substance": "FLKFLKKFFKKLKY [K-20]", "Organism MIC": "S. mutans, 8 μM"}, {"substance": "FTRKFLKFLHL [K-17]", "Organism MIC": "S. mutans, 8 μM"}, {"substance": "GIFKKFVKILYKVQKL [K-22]", "Organism MIC": "S. mutans, 8 μM"}, {"substance": "GILKKLFTKVF [K-13]", "Organism MIC": "S. mutans, 16 μM"}, {"substance": "GLGRVIGRLIKQIIWRR [K-1]", "Organism MIC": "S. mutans, 25 μM"}, {"substance": "GWLKMFKKIIGKFGKF [K-21]", "Organism MIC": "S. mutans, 8 μM"}, {"substance": "KILKFLFKKVF [K-8]", "Organism MIC": "S. mutans, 4 μM"}, {"substance": "KILKFLFKQVF [K-11]", "Organism MIC": "S. mutans, 4 μM"}, {"substance": "KILKKLFKFVF [K-12]", "Organism MIC": "S. mutans, 8 μM"}, {"substance": "KKFKKFKVLKIL [K-18]", "Organism MIC": "S. mutans, 16 μM"}, {"substance": "KLFKFLRKHLL [K-10]", "Organism MIC": "S. mutans, 4 μM"}, {"substance": "LLKLLKLKKLKF [K-19]", "Organism MIC": "S. mutans, 16 μM"}, {"substance": "LRKFLHKLF [K-14]", "Organism MIC": "S. mutans, 8 μM"}, {"substance": "LRKNLRWLF [K-15]", "Organism MIC": "S. mutans, 4 μM"}, {"substance": "NYRLVNAIFSKIFKKKFIKF [K-7]", "Organism MIC": "S. mutans, 12.5 μM"}, {"substance": "VYRKRKSILKIYAKLKGWH [K-2]", "Organism MIC": "S. mutans, 12.5 μM"}]}, {"system": "bacteria, fungi, and/or yeasts", "assay": "not given", "format": "binding", "settings": "microorganism(s) listed as target(s) of the targeting peptide; wrapped target lists given cell by cell", "values": [{"substance": "PF-S003 (ALALLKQDLLNFEGRGRIITSTYLQFNEGCVP)", "Target(s)": "yeast and hyphal forms"}, {"substance": "PF-S018 (GMPQIPRLRI)", "Target(s)": "yeast and hyphal forms"}, {"substance": "PF-S024 (SKRGRKRKDRRKKKANHGKRPNS)", "Target(s)": "Corynebacteria spp."}, {"substance": "Rv1535 (DPLVDGAARLLSIPLRHLYAALWRVGLLEVQA)", "Target(s)": "C. albicans"}, {"substance": "Rv2369c (VRQVPVDRPESRHQKPGDVPRDPRC)", "Target(s)": "C. albicans"}, {"substance": "Rv2561 (QHQCPGMRPAPADAPEVPHAARADQKRPSLRL)", "Target(s)": "C. albicans"}, {"substance": "Rv2660c (RSPDFVDETAGQSWCAILGLNQFH)", "Target(s)": "C. albicans"}, {"substance": "Rv3760 (GLITVFAGTARILQLRRAAKKTHAAALR)", "Target(s)": "C. albicans"}, {"substance": "TT-305 (ARNALNMRDVPVDAAIIGIIDGMDEE)", "Target(s)": "F. nucleatum"}, {"substance": "TT-306 (KILNEAEGKLLKVIEKNGEIDIEEI)", "Target(s)": "F. nucleatum"}, {"substance": "TT-307 (NGDKKAKEELDKWDEVIKELNIQF)", "Target(s)": "F. nucleatum"}, {"substance": "TT-308 (GLVIIPNLIALIILFSQVRQQTKDYFSNPKLSSR)", "Target(s)": "F. nucleatum"}, {"substance": "TT-309 (EPLPLTKYDKKDTEMKKVFKEILAGKVGYEKEEE)", "Target(s)": "F. nucleatum"}, {"substance": "TT-310 (TKLKKNNKLLSAKKENTLHTKDK)", "Target(s)": "F. nucleatum,"}, {"substance": "TT-311 (AIFDAMHNL)", "Target(s)": "S. mutans, S. sobrinus"}]}, {"system": "bacteria, fungi, and/or yeasts", "assay": "not given", "format": "binding", "settings": "microorganism(s) that the targeting peptide binds, as listed in Table 2", "values": [{"substance": "PF-C075 (KALVISVFAIVFSIIFVKFFYWRDKK)", "Target(s)": "A. naeslundii, F. nucleatum, P. gingivalis,; also recorded: S. mutans, T. denticola"}, {"substance": "PF-C080 (INIPGLF)", "Target(s)": "A. naeslundii, F. nucleatum, S. mutans"}, {"substance": "PF-C084 (FFSVIFLFGLNYLICNSPLFNILR)", "Target(s)": "A. naeslundii, F. nucleatum, P. gingivalis,; also recorded: S. mutans"}, {"substance": "PF-C085 (KKFKIFVIINWFYHKYIILNFEENF)", "Target(s)": "A. naeslundii, F. nucleatum, P. gingivalis,; also recorded: S. mutans, T. denticola"}, {"substance": "PF-C086 (ELFFTILSDCNELFLLHLLQQPLFYIKKGK)", "Target(s)": "A. naeslundii, F. nucleatum, P. gingivalis,; also recorded: S. mutans, T. denticola"}, {"substance": "PF-C088 (DIANNILNSVSERLIIA)", "Target(s)": "A. naeslundii, F. nucleatum, P. gingivalis,; also recorded: S. mutans, T. denticola"}, {"substance": "PF-C091 (ASNTPRFVRLTLFNFYSKIWNVTHLFLFNNL)", "Target(s)": "A. naeslundii, F. nucleatum, P. gingivalis,; also recorded: S. mutans, T. denticola"}, {"substance": "PF-C093 (EKLGTMV)", "Target(s)": "A. naeslundii, F. nucleatum, S. mutans"}, {"substance": "PF-C095 (LLALNMNEDTYYFELFFIFDNQNKKWLIFDLKERG)", "Target(s)": "A. naeslundii, F. nucleatum, P. gingivalis,; also recorded: S. mutans"}, {"substance": "PF-C098 (PETKGKVSAFVFGIVVANVIAVVYILYMLREIGIIQ)", "Target(s)": "A. naeslundii, F. nucleatum, P. gingivalis,; also recorded: S. mutans, T. denticola"}, {"substance": "PF-C120 (ASLSTMTFKVMELKELIILLCGLTMLMIQTEFV)", "Target(s)": "A. naeslundii, F. nucleatum, P. gingivalis,; also recorded: S. mutans, T. denticola"}, {"substance": "PF-C131 (QWIVAKREIRMHIYCHISVIHVIIFFG)", "Target(s)": "A. naeslundii, F. nucleatum, P. gingivalis,; also recorded: S. mutans"}, {"substance": "PF-C134 (NELMKYPATLTATATTPGIKYSHLCSVCL)", "Target(s)": "A. naeslundii, F. nucleatum, P. gingivalis,; also recorded: S. mutans, T. denticola"}, {"substance": "PF-C135 (KNTHAYLRVLRLSSLILSYQASVYPLFAYLCQQKDY)", "Target(s)": "A. naeslundii, F. nucleatum, P. gingivalis,; also recorded: S. mutans"}, {"substance": "PF-C136 (LILSYQASVYPLFAYLCQQKDY)", "Target(s)": "A. naeslundii, F. nucleatum, P. gingivalis,; also recorded: S. mutans, T. denticola"}, {"substance": "PF-C137 (QRMYWFKRGFETGDFSAGDTFAELK)", "Target(s)": "A. naeslundii, F. nucleatum, P. gingivalis,; also recorded: S. mutans"}, {"substance": "PF-C139 (LLASHPERLSLGVFFVYRVLHLLLENT)", "Target(s)": "A. naeslundii, F. nucleatum, P. gingivalis,; also recorded: S. mutans, T. denticola"}, {"substance": "PF-C142 (DFPPLSFFRRRFHAYTAPIDNFFGANPF)", "Target(s)": "A. naeslundii, F. nucleatum, P. gingivalis,; also recorded: S. mutans, T. denticola"}, {"substance": "PF-C143 (VVFGGGDRLV)", "Target(s)": "A. naeslundii, F. nucleatum, P. gingivalis,; also recorded: S. mutans, T. denticola"}, {"substance": "PF-C145 (YGKESDP)", "Target(s)": "A. naeslundii, F. nucleatum, P. gingivalis,; also recorded: S. mutans, T. denticola"}, {"substance": "PF-C160 (AASGFTYCASNGVWHPY)", "Target(s)": "F. nucleatum"}, {"substance": "PF-C180 (TVEELDKAFTWGAAAALAIGVIAINVGLAAGYCYNNNDVF)", "Target(s)": "F. nucleatum, P. gingivalis, S. mutans,; also recorded: T. denticola"}, {"substance": "PF-C181 (KMRAGQVVFIYKLILVLLFYVLQKLFDLKKGCF)", "Target(s)": "P. gingivalis"}, {"substance": "PF-C194 (NTNDLLQAFELMGLGMAGVFIVLGILYIVAELLIKIFPVNN)", "Target(s)": "A. naeslundii, F. nucleatum, P. gingivalis,; also recorded: S. mutans, T. denticola"}, {"substance": "PF-C259 (AEIQPHCLSVL)", "Target(s)": "F. nucleatum, S. mutans"}, {"substance": "PF-C271 (FFPSYYSIIITYF)", "Target(s)": "A. naeslundii, F. nucleatum, P. gingivalis,; also recorded: S. mutans, T. denticola"}, {"substance": "PF-C273 (KNMLKRRMKQKRLFDEEDRLRVLSKYTKSYY)", "Target(s)": "A. naeslundii, P. gingivalis, S. mutans,; also recorded: T. denticola"}, {"substance": "PF-C281 (KKEKLLTAIRLQHRAEIRGYFTIFFLFFRI)", "Target(s)": "A. naeslundii, F. nucleatum, P. gingivalis,; also recorded: S. mutans, T. denticola"}, {"substance": "PF-C285 (FTIIELKKQKIKHGENNKKTAHPLNEPFCARA)", "Target(s)": "A. naeslundii, F. nucleatum, P. gingivalis,; also recorded: S. mutans, T. denticola"}, {"substance": "PF-C290 (GNVHPESDFHNLIQFIKTFLYFTIFFKYFL)", "Target(s)": "A. naeslundii, F. nucleatum, P. gingivalis,; also recorded: S. mutans, T. denticola"}, {"substance": "PF-C291 (HPFLTGTGCPLFLIFRLFFVKAYFSFTVF)", "Target(s)": "A. naeslundii, F. nucleatum, P. gingivalis,; also recorded: S. mutans"}, {"substance": "PF-S003 (ALALLKQDLLNFEGRGRIITSTYLQFNEGCVP)", "Target(s)": "S. epidermidis, M. luteus, P. mirabilis,; also recorded: E. coli, P. aeruginosa,; also recorded: C. albicans, MRSA, S. pneumoniae,; also recorded: E. faecalis, C. jeikeium,; also recorded: C. jejuni, M. smegmatis"}, {"substance": "PF-S004 (VLLNIFRTLLEFFSPSNAPGAEDVPLPDTQA)", "Target(s)": "S. epidermidis, MRSA, C. jeikeium"}, {"substance": "PF-S007 (VVAGVVLLTALAVGSKRKEKKQIKEIQRLLAATR)", "Target(s)": "S. epidermidis, MRSA"}, {"substance": "PF-S015 (IENLERGARRPP)", "Target(s)": "S. epidermidis, MRSA, C. jeikeium"}, {"substance": "PF-S018 (GMPQIPRLRI)", "Target(s)": "S. epidermidis, M. luteus, C. albicans,; also recorded: MRSA, E. faecalis, C. jeikeium,; also recorded: C. jejuni"}, {"substance": "PF-S023 (MAEDERRALKRRTNRGRTRTRKRITV)", "Target(s)": "S. epidermidis, MRSA"}, {"substance": "PF-S026 (TELKYNGEEYLLLTQRDILAVIEK)", "Target(s)": "S. epidermidis, MRSA, C. jeikeium"}, {"substance": "PF-S029 (TSDTQSQSPWLFDNADIVNIYPVQLMHSSDND)", "Target(s)": "M. luteus, P. mirabilis, E. coli, C. albicans,; also recorded: C. jeikeium, C. jejuni"}, {"substance": "PF-U (TFFRLFNRSFTQALGK)", "Target(s)": "S. mutans"}, {"substance": "PF-V (KFINGVLSQFVLERK)", "Target(s)": "S. mutans"}, {"substance": "PF-W (FIDSFIRSF)", "Target(s)": "S. mutans"}, {"substance": "PF-X (TFFRLFNRSFTQALGK)", "Target(s)": "S. mutans"}, {"substance": "PF-Y (FIKHFIHRF)", "Target(s)": "S. mutans"}]}]}
